Reference: patent US11718604B2, “4-amino-6-(1,3-benzodioxole)picolinates and their use as herbicides” (Dow AgroSciences LLC, priority 2018, dated 2023)

Tests used:
Assay type in all cases: in vivo
[1] = system: ABUTH: velvetleaf (Abutilon theophrasti); assay: Post-emergent herbicidal test, velvetleaf; conditions: post-emergence, 336 h, 14 days after application, read-out: Visual Growth Reduction (%) 14 Days After Application ABUTH
In short: (§1)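 Greenhouse-grown plants at the first or second true leaf stage (7-21 d, ~15 h photoperiod, 23-29° C day) were sprayed overhead at 187 L/ha with compound in acetone/DMSO-based spray solution containing crop oil concentrate and surfactant. Injury was scored visually after 14 d, 0-100% versus untreated plants.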

[2] = system: BRSNN: oilseed rape, canola (Brassica napus); assay: Post-emergent herbicidal test, oilseed rape; conditions: post-emergence, 336 h, 14 days after application, read-out: Visual Growth Reduction (%) 14 Days After Application BRSNN
In short: as §1

[3] = system: CIRAR: Canada thistle (Cirsium arvense); assay: Post-emergent herbicidal test, Canada thistle; conditions: post-emergence, 336 h, 14 days after application, read-out: Visual Growth Reduction (%) 14 Days After Application CIRAR
In short: as §1

[4] = system: EPHHL: wild poinsettia (Euphorbia heterophylla); assay: Post-emergent herbicidal test, wild poinsettia; conditions: post-emergence, 336 h, 14 days after application, read-out: Visual Growth Reduction (%) 14 Days After Application EPHHL
In short: as §1

[5] = system: IPOHE: ivyleaf morningglory (Ipomoea hederacea); assay: Post-emergent herbicidal test, ivyleaf morningglory; conditions: post-emergence, 336 h, 14 days after application, read-out: Visual Growth Reduction (%) 14 Days After Application IPOHE
In short: as §1

[6] = system: VIOTR: wild violet (Viola tricolor); assay: Post-emergent herbicidal test, wild violet; conditions: post-emergence, 336 h, 14 days after application, read-out: Visual Growth Reduction (%) 14 Days After Application VIOTR
In short: as §1

[7] = system: CYPES: yellow nutsedge (Cyperus esculentus); assay: Post-emergent herbicidal test, yellow nutsedge; conditions: post-emergence, 336 h, 14 days after application, read-out: Visual Growth Reduction (%) 14 Days After Application CYPES
In short: as §1

[8] = system: DIGSA: large crabgrass (Digitaria sanguinalis); assay: Post-emergent herbicidal test, large crabgrass; conditions: post-emergence, 336 h, 14 days after application, read-out: Visual Growth Reduction (%) 14 Days After Application DIGSA
In short: as §1

[9] = system: ECHCG: barnyardgrass (Echinochloa crus-galli); assay: Post-emergent herbicidal test, barnyardgrass; conditions: post-emergence, 336 h, 14 days after application, read-out: Visual Growth Reduction (%) 14 Days After Application ECHCG
In short: as §1

[10] = system: SETFA: giant foxtail (Setaria faberi); assay: Post-emergent herbicidal test, giant foxtail; conditions: post-emergence, 336 h, 14 days after application, read-out: Visual Growth Reduction (%) 14 Days After Application SETFA
In short: as §1

[11] = system: SORVU: shattercane (Sorghum bicolor); assay: Post-emergent herbicidal test, shattercane; conditions: post-emergence, 336 h, 14 days after application, read-out: Visual Growth Reduction (%) 14 Days After Application SORVU
In short: as §1

## Nc1c(F)c(-c2ccc(I)c3c2OC(F)(F)O3)nc(C(=O)O)c1Cl [Compound 12]
[1]; 17.5 g ai/ha
  pest or weed control at 17.5 g/ha: 0%
[1]; 35 g ai/ha
  pest or weed control at 35 g/ha: 0%
[1]; 70 g ai/ha
  pest or weed control at 70 g/ha: 70%
[1]; 140 g ai/ha
  pest or weed control at 140 g/ha: 80%
[2]; 17.5 g ai/ha
  pest or weed control at 17.5 g/ha: 70%
[2]; 35 g ai/ha
  pest or weed control at 35 g/ha: 80%
[2]; 70 g ai/ha
  pest or weed control at 70 g/ha: 90%
[2]; 140 g ai/ha
  pest or weed control at 140 g/ha: 100%
[3]; 17.5 g ai/ha
  pest or weed control at 17.5 g/ha: 65%
[3]; 35 g ai/ha
  pest or weed control at 35 g/ha: 80%
[3]; 70 g ai/ha
  pest or weed control at 70 g/ha: 85%
[3]; 140 g ai/ha
  pest or weed control at 140 g/ha: 85%
[4]; 17.5 g ai/ha
  pest or weed control at 17.5 g/ha: 0%
[4]; 35 g ai/ha
  pest or weed control at 35 g/ha: 0%
[4]; 70 g ai/ha
  pest or weed control at 70 g/ha: 0%
[4]; 140 g ai/ha
  pest or weed control at 140 g/ha: 0%
[5]; 17.5 g ai/ha
  pest or weed control at 17.5 g/ha: 0%
[5]; 35 g ai/ha
  pest or weed control at 35 g/ha: 0%
[5]; 70 g ai/ha
  pest or weed control at 70 g/ha: 0%
[5]; 140 g ai/ha
  pest or weed control at 140 g/ha: 0%
[6]; 17.5 g ai/ha
  pest or weed control at 17.5 g/ha: 0%
[6]; 35 g ai/ha
  pest or weed control at 35 g/ha: 0%
[6]; 70 g ai/ha
  pest or weed control at 70 g/ha: 0%
[6]; 140 g ai/ha
  pest or weed control at 140 g/ha: 0%
[7]; 17.5 g ai/ha
  pest or weed control at 17.5 g/ha: 0%
[7]; 35 g ai/ha
  pest or weed control at 35 g/ha: 0%
[7]; 70 g ai/ha
  pest or weed control at 70 g/ha: 0%
[7]; 140 g ai/ha
  pest or weed control at 140 g/ha: 0%
[8]; 17.5 g ai/ha
  pest or weed control at 17.5 g/ha: 0%
[8]; 35 g ai/ha
  pest or weed control at 35 g/ha: 0%
[8]; 70 g ai/ha
  pest or weed control at 70 g/ha: 0%
[8]; 140 g ai/ha
  pest or weed control at 140 g/ha: 0%
[9]; 17.5 g ai/ha
  pest or weed control at 17.5 g/ha: 0%
[9]; 35 g ai/ha
  pest or weed control at 35 g/ha: 0%
[9]; 70 g ai/ha
  pest or weed control at 70 g/ha: 0%
[9]; 140 g ai/ha
  pest or weed control at 140 g/ha: 0%
[10]; 17.5 g ai/ha
  pest or weed control at 17.5 g/ha: 0%
[10]; 35 g ai/ha
  pest or weed control at 35 g/ha: 0%
[10]; 70 g ai/ha
  pest or weed control at 70 g/ha: 0%
[10]; 140 g ai/ha
  pest or weed control at 140 g/ha: 0%
[11]; 17.5 g ai/ha
  pest or weed control at 17.5 g/ha: 0%
[11]; 35 g ai/ha
  pest or weed control at 35 g/ha: 0%
[11]; 70 g ai/ha
  pest or weed control at 70 g/ha: 0%
[11]; 140 g ai/ha
  pest or weed control at 140 g/ha: 0%
